Measured values reported in the supplement of paper PMC10307832.

What was measured:
Experiment in all cases: relative viability (nuclei count vs DMSO), 5 days (fraction); higher = more cells survive
Cabozantinib + Foretinib = compound: COc1cc2nccc(Oc3ccc(NC(=O)C4(C(=O)Nc5ccc(F)cc5)CC4)cc3)c2cc1OC [Cabozantinib] + COc1cc2c(Oc3ccc(NC(=O)C4(C(=O)Nc5ccc(F)cc5)CC4)cc3F)ccnc2cc1OCCCN1CCOCC1 [Foretinib] (partner 0.25 µM)
In short: (§1)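 Lung cancer cell lines, seeded in 1536-well plates, were treated the following day by pin tool with a single drug or with five library-drug doses (not always all listed) in √10 steps on top of a fixed anchor-drug dose. Cells were fixed and nuclei stained in one step after 5 days, and nuclei were counted. Relative viability is the nuclei count for treated wells divided by that for vehicle wells, reported as medians of duplicate plates.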

[1] = compound: COc1cc2nccc(Oc3ccc(NC(=O)C4(C(=O)Nc5ccc(F)cc5)CC4)cc3)c2cc1OC [Cabozantinib] + CC(=O)c1c(C)c2cnc(Nc3ccc(N4CCNCC4)cn3)nc2n(C2CCCC2)c1=O [Palbociclib] (partner 0.5 µM)
In short: as §1

Kobe2602 + Olaparib = compound: C1=CC(=CC=C1NC(=S)NNC2=C(C=C(C=C2[N+](=O)[O-])C(F)(F)F)[N+](=O)[O-])F [Kobe2602] + O=C(c1cc(Cc2n[nH]c(=O)c3ccccc23)ccc1F)N1CCN(C(=O)C2CC2)CC1 [Olaparib] (partner 8 µM)
In short: as §1

Zosuquidar + Decitabine = compound: O[C@@H](COc1cccc2ncccc12)CN1CCN([C@@H]2c3ccccc3[C@@H]3[C@H](c4ccccc42)C3(F)F)CC1 [Zosuquidar] + Nc1ncn([C@H]2C[C@H](O)[C@@H](CO)O2)c(=O)n1 [Decitabine] (partner 2 µM)
In short: as §1

Cell Line | relative viability (Cabozantinib + Foretinib; first compound 0.06325 µM) | relative viability (Cabozantinib + Foretinib; first compound 0.2 µM) | relative viability (Cabozantinib + Foretinib; first compound 0.6325 µM) | relative viability (Cabozantinib + Foretinib; first compound 2 µM) | relative viability ([1]; first compound 0.02 µM) | relative viability ([1]; first compound 0.06325 µM) | relative viability ([1]; first compound 0.2 µM) | relative viability ([1]; first compound 0.6325 µM) | relative viability ([1]; first compound 2 µM) | relative viability (Kobe2602 + Olaparib; first compound 0.2 µM) | relative viability (Kobe2602 + Olaparib; first compound 0.6325 µM) | relative viability (Kobe2602 + Olaparib; first compound 2 µM) | relative viability (Kobe2602 + Olaparib; first compound 6.325 µM) | relative viability (Kobe2602 + Olaparib; first compound 20 µM) | relative viability (Zosuquidar + Decitabine; first compound 0.01 µM) | relative viability (Zosuquidar + Decitabine; first compound 0.03162 µM) | relative viability (Zosuquidar + Decitabine; first compound 0.1 µM) | relative viability (Zosuquidar + Decitabine; first compound 0.3162 µM) | relative viability (Zosuquidar + Decitabine; first compound 1 µM) | relative viability (Cabozantinib + Foretinib; first compound 0.02 µM)
201T | 1.21 | 1.05 | 1.05 | 1.14 | 0.352 | 0.342 | 0.332 | 0.371 | 0.384 | 0.815 | 0.859 | 0.869 | 0.866 | 0.826 | 0.848 | 0.858 | 0.837 | 0.867 | 0.864 | –
A549 | 1.17 | 0.964 | 0.909 | 0.942 | – | – | – | – | – | 0.45 | 0.484 | 0.281 | 0.315 | 0.513 | 0.264 | 0.116 | – | 0.318 | 0.301 | 1.09
A-427 | 1.28 | 0.89 | 0.967 | 0.786 | 0.524 | 0.584 | 0.521 | 0.493 | 0.527 | 0.74 | 0.726 | 0.73 | 0.785 | 0.701 | 0.582 | 0.561 | 0.584 | 0.653 | 0.557 | 1.09
ABC-1 | 1.13 | 1.11 | 1 | 0.932 | – | 0.734 | 0.707 | 0.855 | 0.654 | 0.639 | 0.623 | 0.747 | 0.773 | 0.775 | 1.27 | 1.15 | 1.15 | 1.24 | 1.15 | 1.15
BEN | 0.79 | 0.708 | 0.787 | 0.387 | 0.525 | 0.507 | 0.47 | 0.425 | 0.463 | 1.08 | 1.02 | 1 | 1.07 | 0.973 | 0.695 | 0.664 | 0.659 | 0.822 | 0.787 | 0.595
CAL-12T | 1.31 | 1.17 | 1.08 | 1.18 | 0.435 | 0.583 | 0.408 | 0.497 | 0.572 | 0.697 | 0.685 | 0.678 | 0.707 | 0.784 | – | – | – | – | – | 1.22
COR-L23 | 1.1 | 0.976 | 0.977 | 0.95 | 0.299 | 0.295 | 0.29 | 0.391 | 0.297 | 0.316 | 0.394 | 0.351 | 0.361 | 0.326 | 0.501 | 0.421 | 0.511 | 0.469 | 0.468 | 0.978
COR-L 105 | 1.01 | – | 1.14 | 0.969 | 0.409 | 0.4 | 0.378 | 0.411 | 0.413 | 0.658 | 0.718 | 0.425 | 0.588 | 0.686 | 0.645 | 0.712 | 0.636 | 0.716 | 0.652 | 1.36
Calu-6 | 0.876 | 0.923 | 0.916 | 0.811 | – | – | – | – | – | 0.581 | 0.589 | 0.606 | 0.631 | 0.514 | – | – | – | – | – | 1.04
ChaGo-K-1 | 1.04 | 0.968 | 0.836 | 0.857 | 1.05 | 1.05 | 0.906 | 0.899 | 0.871 | 0.362 | 0.406 | 0.4 | 0.355 | 0.332 | 0.552 | 0.448 | 0.534 | 0.536 | 0.477 | 0.937
EBC-1 | 0.104 | 0.0976 | 0.0898 | 0.114 | – | – | – | – | – | 0.687 | 0.684 | 0.69 | 0.647 | 0.759 | – | – | – | – | – | 0.101
EKVX | 0.862 | 0.81 | 0.536 | 0.852 | 0.397 | 0.41 | 0.307 | 0.394 | 0.544 | 0.749 | 0.792 | 0.864 | 0.786 | 0.808 | 0.299 | 0.414 | – | 0.334 | 0.36 | 0.77
EMC-BAC-2 | 0.973 | 1.04 | 0.982 | 0.962 | 0.531 | 0.551 | 0.552 | 0.533 | 0.543 | 0.511 | 0.531 | 0.46 | 0.559 | 0.532 | 0.915 | 0.991 | 0.9 | 1.14 | 0.964 | 1.02
EPLC-272H | 0.884 | 0.515 | 0.82 | 0.782 | 0.3 | 0.317 | 0.277 | 0.34 | 0.305 | 0.905 | 0.744 | 0.578 | 0.663 | 0.943 | 0.393 | 0.429 | 0.4 | 0.392 | 0.376 | 0.77
H3255 | 1.01 | – | 0.979 | 1.07 | 0.317 | 0.351 | – | 0.339 | 0.325 | 0.561 | 0.562 | 0.515 | 0.532 | 0.559 | 0.559 | 0.592 | 0.497 | 0.696 | 0.716 | 0.773
